Results: US20140364438A1, “TRIAZOLOPYRIDINE DERIVATIVES AS A TYROSINE KINASE INHIBITOR” (HANMI PHARM. CO., LTD., priority 2012, published 2014)

Legend:
JAK3 = molecular target: T1, JAK3 (Homo sapiens, UniProt P52333); assay: JAK3 kinase inhibitory activity, Z-Lyte Kinase Assay Kit; assay type: biochemical; conditions: 60 minutes at room temperature
T1 construct: purchased Invitrogen PV3855
Procedure: (§1) The compounds prepared in Examples 1 to 5 were tested for JAK3 and BTK kinase inhibitory activity. Kinase inhibitory activity was measured by using Z-Lyte Kinase Assay Kit (Invitrogen), and JAK3 and BTK enzymes were purchased from Invitrogen (PV3855, PV3190).
(§2) Specifically, the compounds of Examples 1 to 5 were diluted with an aqueous solution of 4% DMSO to obtain solutions with concentrations in the range of 1 to 0.0001 μM. Each kinase was diluted to 1 to 10 ng/assay, and ATP was diluted to form a kinase buffer (50 mM HEPES, pH 7.4; 10 mM MgCl2; 1 mM EGTA; and 0.01% BRIJ-35) by calculating an approximate Kd value. The assays were performed in 384-well polystyrene flat-bottomed plates. Peptide substrate having a suitable concentration, 10 μL of mixed kinase solution and 5 μL of ATP solution having a concentration of 5 to 300 μM were added to 5 μL of the diluted solution of the compound, and allowed to react in a mixer for 60 minutes at room temperature. After 60 minutes, 10 μL of fluorescent labeling reagents was added to each mixture so as to allow fluorescent labeling of peptide substrates, followed by adding a finishing solution to complete the reaction. The fluorescence level was determined with a Molecular Device at 400 nm (excitation filter) and 520 nm (emission filter). The kinase inhibitory activities of the compounds were calculated in phosphorylation rates between 0˜400% against the control group (staurosporine or each of kinase inhibitor) according to the reference protocol of the kit, and percentage inhibition was determine and plotted against concentration (x-axis) to calculate 50% inhibitory concentration (IC50). The calculation and analysis of IC50 were carried out by using Microsoft Excel.

BTK = molecular target: T2, BTK (Homo sapiens, UniProt Q06187); assay: BTK kinase inhibitory activity, Z-Lyte Kinase Assay Kit; assay type: biochemical; conditions: 60 minutes at room temperature
T2 construct: purchased Invitrogen PV3190
T2 sequence (Q06187 whole entry): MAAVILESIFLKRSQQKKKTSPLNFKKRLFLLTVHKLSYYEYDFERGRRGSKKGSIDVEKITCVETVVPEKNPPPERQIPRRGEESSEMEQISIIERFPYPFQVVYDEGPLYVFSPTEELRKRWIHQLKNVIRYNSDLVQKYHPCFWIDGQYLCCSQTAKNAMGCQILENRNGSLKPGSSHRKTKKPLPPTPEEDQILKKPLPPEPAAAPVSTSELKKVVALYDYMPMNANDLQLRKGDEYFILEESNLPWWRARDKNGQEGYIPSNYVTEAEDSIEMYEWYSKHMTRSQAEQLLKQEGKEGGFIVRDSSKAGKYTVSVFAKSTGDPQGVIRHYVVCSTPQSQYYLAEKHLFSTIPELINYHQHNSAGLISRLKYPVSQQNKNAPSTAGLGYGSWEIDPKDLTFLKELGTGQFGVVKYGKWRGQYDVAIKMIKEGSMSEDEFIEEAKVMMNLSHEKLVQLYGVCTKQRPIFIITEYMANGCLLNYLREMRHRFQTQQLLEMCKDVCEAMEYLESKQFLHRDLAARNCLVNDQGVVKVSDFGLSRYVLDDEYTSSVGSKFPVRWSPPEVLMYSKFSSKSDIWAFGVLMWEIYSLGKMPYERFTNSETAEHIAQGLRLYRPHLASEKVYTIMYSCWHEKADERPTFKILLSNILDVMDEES
Procedure: as §1, §2

T1 sequence (P52333 781-1124 limits assumed): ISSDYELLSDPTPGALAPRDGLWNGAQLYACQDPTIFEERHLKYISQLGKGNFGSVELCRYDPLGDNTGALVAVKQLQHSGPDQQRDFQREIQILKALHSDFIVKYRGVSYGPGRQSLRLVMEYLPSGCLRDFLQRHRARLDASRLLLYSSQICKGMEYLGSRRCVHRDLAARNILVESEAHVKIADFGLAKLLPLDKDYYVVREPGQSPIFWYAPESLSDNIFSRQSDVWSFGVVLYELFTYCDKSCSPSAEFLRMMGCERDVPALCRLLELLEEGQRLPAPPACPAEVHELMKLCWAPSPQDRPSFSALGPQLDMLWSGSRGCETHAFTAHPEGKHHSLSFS

Compound: C=CC(=O)Nc1cccc(Oc2cccn3nc(Nc4ccc(C(=O)N5CCN(C)CC5)cc4)nc23)c1 [Example 4, N-(3-(2-(4-(4-methylpiperazin-1-carbonyl)phenylamino)-[1,2,4]triazolo[1,5-a]pyridin-8-yloxy)phenyl)acrylamide]
- IC50 (JAK3; class symbol): ≤ 100 nM
- IC50 (BTK; class symbol): 100 to 500 nM

Compound: C=CC(=O)Nc1cccc(Oc2cccn3nc(Nc4ccc(N5CCN(C(C)C)CC5)cc4)nc23)c1 [Example 5, N-(3-(2-(4-(4-isopropylpiperazin-1-yl)phenylamino)-[1,2,4]triazolo[1,5-a]pyridin-8-yloxy)phenyl)acrylamide]
- IC50 (JAK3; class symbol): ≤ 100 nM
- IC50 (BTK; class symbol): 500 to 1000 nM

Compound: C=CC(=O)Nc1cccc(Oc2cccn3nc(Nc4ccc(CN(C)C)cc4)nc23)c1 [Example 3, N-(3-(2-(4-((dimethylamino)methyl)phenylamino)-[1,2,4]triazolo[1,5-a]pyridin-8-yloxy)phenyl)acrylamide]
- IC50 (JAK3; class symbol): ≤ 100 nM
- IC50 (BTK; class symbol): 100 to 500 nM

Compound: C=CC(=O)Nc1cccc(Oc2cccn3nc(Nc4ccc(NC5CCN(C)CC5)c(F)c4)nc23)c1 [Example 2, N-(3-(2-(3-fluoro-4-(1-methylpiperidin-4-ylamino)phenylamino)-[1,2,4]triazolo[1,5-a]pyridin-8-yloxy)phenyl)acrylamide]
- IC50 (JAK3; class symbol): ≤ 100 nM
- IC50 (BTK; class symbol): 100 to 500 nM

Compound: C=CC(=O)Nc1cccc(Oc2cccn3nc(Nc4ccc(N5CCN(C)CC5)cc4)nc23)c1 [Example 1, N-(3-(2-(4-(4-methylpiperazin-1-yl)phenylamino)-[1,2,4]triazolo[1,5-a]pyridin-8-yloxy)phenyl)acrylamide]
- IC50 (JAK3; class symbol): ≤ 100 nM
- IC50 (JAK3; numeric value in parentheses): 9 nM
- IC50 (BTK; class symbol): ≤ 100 nM
- IC50 (BTK; numeric value in parentheses): 73 nM
